The values that follow come from patent publication US20180185490A1 (R&D PHARMA, priority 2017, published 2018).

Series [1] is described as follows: Tolerance in subungual and periungual application. It is filed as in vivo. From the text:
(§1) Its tolerance in subungual and periungual application is good and perfectly compatible with the desired therapeutic effect.

The nature of series [2]: Irritation of eyes and mucous membranes. The settings on record: pure or concentrated GBL. Format: in vivo.
From the text: as §1

Series [3] deals with rat. The settings on record: by mouth; cited from earlier work.
The subject of series [4] is DNA. The following applies: cited from earlier work.

Structures are written as SMILES.

As for `O=C1CCCO1` [GBL, gamma-butyrolactone], in series [1], the “tolerance in subungual and periungual application” value is listed as “good”. The “irritation of eyes and mucous membranes” value in series [2] was “irritating to the eyes and the mucous membranes”. In addition, the LD50 in series [3] is 17.2 mL/kg. Besides, the “alteration of DNA” value in series [4] is recorded as “no alteration of DNA”.
